The values that follow come from patent US20250163054A1, “SUBSTITUTED BICYCLIC HETEROARYL COMPOUNDS USEFUL AS INHIBITORS OF TLR9” (Bristol-Myers Squibb Company, priority 2022, published 2025).

As usually defined, the IC50 is the point on the concentration scale where inhibition reaches its midpoint. A high value points to weaker potency.

Each structure is given as a SMILES string.

Type in all cases: cell-based
The target in experiment [1] is T1, human TLR8 (Homo sapiens, UniProt Q9NR97).
T1 construct: host or cells: HEK-Blue cells (HEK293-derived reporter line)
T1 sequence (Q9NR97 27-1041): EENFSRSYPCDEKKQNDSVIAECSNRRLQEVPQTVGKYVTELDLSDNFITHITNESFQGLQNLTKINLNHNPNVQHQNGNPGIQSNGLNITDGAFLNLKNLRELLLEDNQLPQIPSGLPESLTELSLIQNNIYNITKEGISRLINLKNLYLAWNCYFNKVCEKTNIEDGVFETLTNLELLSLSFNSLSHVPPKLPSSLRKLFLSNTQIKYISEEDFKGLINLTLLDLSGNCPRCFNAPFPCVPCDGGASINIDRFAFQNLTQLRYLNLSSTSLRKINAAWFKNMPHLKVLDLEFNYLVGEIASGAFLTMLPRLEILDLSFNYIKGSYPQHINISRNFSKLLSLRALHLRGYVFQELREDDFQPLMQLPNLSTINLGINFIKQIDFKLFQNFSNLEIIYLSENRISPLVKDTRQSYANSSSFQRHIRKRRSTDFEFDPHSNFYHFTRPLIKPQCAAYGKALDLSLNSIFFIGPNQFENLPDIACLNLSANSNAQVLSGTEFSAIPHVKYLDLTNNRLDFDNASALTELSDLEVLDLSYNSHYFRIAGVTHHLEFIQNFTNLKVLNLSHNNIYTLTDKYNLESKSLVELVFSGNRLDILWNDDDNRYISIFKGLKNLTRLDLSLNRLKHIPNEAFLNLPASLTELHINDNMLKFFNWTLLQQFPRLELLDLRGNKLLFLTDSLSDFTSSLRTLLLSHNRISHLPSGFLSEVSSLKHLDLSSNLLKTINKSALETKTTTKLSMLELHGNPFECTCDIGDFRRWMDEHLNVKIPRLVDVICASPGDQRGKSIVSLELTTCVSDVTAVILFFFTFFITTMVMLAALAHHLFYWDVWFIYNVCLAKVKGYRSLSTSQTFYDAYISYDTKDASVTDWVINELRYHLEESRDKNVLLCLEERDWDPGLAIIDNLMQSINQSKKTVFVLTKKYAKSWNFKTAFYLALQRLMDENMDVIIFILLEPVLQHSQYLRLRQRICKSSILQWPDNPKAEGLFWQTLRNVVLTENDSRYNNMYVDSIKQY
Put plainly: TLR7/8/9 Inhibition Reporter Assays (TLR8). Particulars: HEK-Blue cells overexpressing human TLR8, SEAP reporter, stimulated with TLR8 ligand R848. Summed up: (§1)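 HEK-Blue cells overexpressing human TLR7, TLR8 or TLR9 with NF-κB/AP-1-driven SEAP reporter, pre-treated 60 min with compound ([…]). Stimulated with […] (TLR7), […] (TLR8) or ODN2006 200 nM (TLR9), then 22 h at 37° C; SEAP measured, % inhibition relative to agonist-plus-DMSO and known-inhibitor wells.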
Background: Reporter assays use an easily measured gene product as a stand-in for the process of interest.

For experiment [2], the target named is T2, human TLR7 (Homo sapiens, UniProt Q9NYK1).
T2 construct: host or cells: HEK-Blue cells (HEK293-derived reporter line)
T2 sequence (Q9NYK1 27-1049): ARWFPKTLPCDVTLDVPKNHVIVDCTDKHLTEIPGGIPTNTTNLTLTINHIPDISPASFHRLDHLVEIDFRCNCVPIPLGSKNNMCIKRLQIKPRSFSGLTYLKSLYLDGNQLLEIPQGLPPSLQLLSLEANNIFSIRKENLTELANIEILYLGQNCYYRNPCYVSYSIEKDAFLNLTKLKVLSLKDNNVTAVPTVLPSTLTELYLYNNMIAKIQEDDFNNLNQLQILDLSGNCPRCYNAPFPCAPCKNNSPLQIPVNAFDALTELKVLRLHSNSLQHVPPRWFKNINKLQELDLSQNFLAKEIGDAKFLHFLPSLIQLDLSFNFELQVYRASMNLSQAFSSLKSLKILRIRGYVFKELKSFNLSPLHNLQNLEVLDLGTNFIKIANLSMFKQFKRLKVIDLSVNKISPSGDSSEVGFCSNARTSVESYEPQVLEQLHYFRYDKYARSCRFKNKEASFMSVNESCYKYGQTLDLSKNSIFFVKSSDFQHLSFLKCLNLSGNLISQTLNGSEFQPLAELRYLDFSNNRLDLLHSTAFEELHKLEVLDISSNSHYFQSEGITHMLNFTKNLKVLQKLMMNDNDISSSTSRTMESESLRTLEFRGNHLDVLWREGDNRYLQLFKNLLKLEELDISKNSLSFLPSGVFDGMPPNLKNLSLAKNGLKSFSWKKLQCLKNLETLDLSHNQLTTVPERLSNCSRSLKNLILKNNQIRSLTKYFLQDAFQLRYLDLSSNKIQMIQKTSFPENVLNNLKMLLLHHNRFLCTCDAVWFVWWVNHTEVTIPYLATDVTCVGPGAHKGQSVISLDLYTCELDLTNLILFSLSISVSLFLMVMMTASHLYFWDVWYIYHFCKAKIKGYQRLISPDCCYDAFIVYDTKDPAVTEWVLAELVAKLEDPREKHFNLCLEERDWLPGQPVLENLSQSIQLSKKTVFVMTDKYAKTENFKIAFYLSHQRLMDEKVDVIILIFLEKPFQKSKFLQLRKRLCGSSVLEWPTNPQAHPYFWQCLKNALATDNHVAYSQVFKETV
The experiment can be described thus: TLR7/8/9 Inhibition Reporter Assays (TLR7). Particulars: HEK-Blue cells overexpressing human TLR7, SEAP reporter, stimulated with TLR7 ligand gardiquimod. The gist of the method:
as §1

In experiment [3] the target is T3, human TLR9 (Homo sapiens, UniProt Q9NR96).
T3 construct: host or cells: HEK-Blue cells (HEK293-derived reporter line)
T3 sequence (Q9NR96 26-1032): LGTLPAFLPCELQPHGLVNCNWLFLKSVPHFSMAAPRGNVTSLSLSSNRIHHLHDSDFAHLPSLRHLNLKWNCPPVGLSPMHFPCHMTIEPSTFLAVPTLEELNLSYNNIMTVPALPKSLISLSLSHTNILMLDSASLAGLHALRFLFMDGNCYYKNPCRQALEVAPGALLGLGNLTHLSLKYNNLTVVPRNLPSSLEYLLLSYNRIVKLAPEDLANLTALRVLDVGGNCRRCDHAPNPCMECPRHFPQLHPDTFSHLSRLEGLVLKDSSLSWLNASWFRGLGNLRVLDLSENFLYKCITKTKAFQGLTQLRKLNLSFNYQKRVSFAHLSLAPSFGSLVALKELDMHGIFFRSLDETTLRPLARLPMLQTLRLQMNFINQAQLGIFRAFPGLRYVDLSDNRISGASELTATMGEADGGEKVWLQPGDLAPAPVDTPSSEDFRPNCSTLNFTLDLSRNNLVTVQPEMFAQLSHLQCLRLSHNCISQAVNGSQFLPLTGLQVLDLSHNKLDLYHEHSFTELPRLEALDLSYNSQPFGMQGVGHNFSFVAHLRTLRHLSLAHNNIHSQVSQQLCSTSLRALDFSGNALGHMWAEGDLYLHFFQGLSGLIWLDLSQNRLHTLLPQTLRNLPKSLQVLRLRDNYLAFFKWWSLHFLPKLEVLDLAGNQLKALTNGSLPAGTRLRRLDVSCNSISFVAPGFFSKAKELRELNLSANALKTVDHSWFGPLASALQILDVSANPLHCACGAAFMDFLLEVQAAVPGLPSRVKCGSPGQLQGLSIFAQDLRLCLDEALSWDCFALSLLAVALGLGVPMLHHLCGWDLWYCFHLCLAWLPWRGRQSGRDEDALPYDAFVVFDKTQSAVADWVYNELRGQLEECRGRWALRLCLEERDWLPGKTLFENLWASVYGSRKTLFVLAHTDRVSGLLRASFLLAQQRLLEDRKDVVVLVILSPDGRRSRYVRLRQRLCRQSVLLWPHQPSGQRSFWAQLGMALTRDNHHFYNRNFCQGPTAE
Put plainly: TLR7/8/9 Inhibition Reporter Assays (TLR9). Particulars: HEK-Blue cells overexpressing human TLR9, SEAP reporter, stimulated with TLR9 ligand ODN2006. Summed up: as §1

As to `COc1ccc(-c2nc3c(C)nc(-c4ccc(N5CC6(C5)CN(C5COC5)C6)cc4)cc3n2C)cc1OC` [Example 102, 2-(3,4-dimethoxyphenyl)-1,4-dimethyl-6-(4-(6-(oxetan-3-yl)-2,6-diazaspiro[3.3]heptan-2-yl)phenyl)-1H-imidazo[4,5-c]pyridine], the results for the half-maximal inhibitory concentration (IC50) in experiment [1], in experiment [2] and in experiment [3] were over 50 µM, 9.1 µM and 0.32 µM, respectively.

On to `Cc1nc(-c2ccc(N3CCN(C4CCC4)CC3)cc2)cc2c1nc(-c1ccc(S(C)(=O)=O)cc1)n2C` [Example 21, 6-(4-(4-cyclobutylpiperazin-1-yl)phenyl)-1,4-dimethyl-2-(4-(methylsulfonyl)phenyl)-1H-imidazo[4,5-c]pyridine], for which the 50% inhibitory concentration (IC50) worked out at 3.3 µM in experiment [1], 3 µM in experiment [2] and 0.45 µM in experiment [3].

As for `COc1ccc(-c2nc3c(C)nc(-c4ccc(N5CCN(CC(C)C)CC5)cc4)cc3n2C)cc1OC` [Example 17, 2-(3,4-dimethoxyphenyl)-6-(4-(4-isobutylpiperazin-1-yl)phenyl)-1,4-dimethyl-1H-imidazo[4,5-c]pyridine], the values for the IC50 in experiment [1], in experiment [2] and in experiment [3] were 12 µM, 4.4 µM and 0.46 µM, respectively.

On to `COc1ccc(-c2nc3c(C)nc(-c4ccc(N5CCC6(CC5)CN(C5CCC5)C6)cc4)cc3n2C)cc1OC` [Example 80, 6-(4-(2-cyclobutyl-2,7-diazaspiro[3.5]nonan-7-yl)phenyl)-2-(3,4-dimethoxyphenyl)-1,4-dimethyl-1H-imidazo[4,5-c]pyridine], for which the 50% inhibitory concentration (IC50) was 15 µM in experiment [1], 0.59 µM in experiment [2] and 0.061 µM in experiment [3].

For `CC(C)N1CCC(N2CCC(c3cc4c(cn3)nc(-c3ccc(S(C)(=O)=O)cc3)n4C)CC2)CC1` [Example 30, 6-(1′-isopropyl-[1,4′-bipiperidin]-4-yl)-1-methyl-2-(4-(methylsulfonyl)phenyl)-1H-imidazo[4,5-c]pyridine], the concentration for half-maximal inhibition (IC50) was over 25 µM in experiment [1], over 25 µM in experiment [2] and 1.4 µM in experiment [3].

With `Cc1nc(-c2ccc(N3C[C@@H]4CN(C(C)C)C[C@@H]4C3)cc2)cc2c1nc(-c1ccc(S(C)(=O)=O)cc1)n2C` [Example 67, 6-(4-((3aR,6aS)-5-isopropylhexahydropyrrolo[3,4-c]pyrrol-2(1H)-yl)phenyl)-1,4-dimethyl-2-(4-(methylsulfonyl)phenyl)-1H-imidazo[4,5-c]pyridine], the IC50 in experiment [1] is 1.8 µM; in experiment [2], 1.9 µM; in experiment [3], 0.041 µM.

Regarding `Cc1nc(-c2ccc(N3CC4(CCN(CC(C)C)CC4)C3)cc2)cc2c1nc(-c1ccc(S(C)(=O)=O)cc1)n2C` [Example 98, 6-(4-(7-isobutyl-2,7-diazaspiro[3.5]nonan-2-yl)phenyl)-1,4-dimethyl-2-(4-(methylsulfonyl)phenyl)-1H-imidazo[4,5-c]pyridine], the IC50 is over 50 µM in experiment [1], 2.4 µM in experiment [2] and 0.063 µM in experiment [3].

`Cc1nc(-c2ccc(N3CCN(CC(C)(C)O)CC3)cc2)cc2c1nc(-c1ccc(S(C)(=O)=O)cc1)n2C` [Example 8, 1-(4-(4-(1,4-dimethyl-2-(4-(methylsulfonyl)phenyl)-1H-imidazo[4,5-c]pyridin-6-yl)phenyl)piperazin-1-yl)-2-methylpropan-2-ol]: the figures for the half-inhibitory concentration (IC50) in experiment [1], in experiment [2] and in experiment [3] were 13 µM, 6.4 µM and 0.89 µM, respectively.

Turning to `CC(C)N1CC2(CCN(c3ccc(-c4cc5c(cn4)nc(-c4ccc(S(C)(=O)=O)cc4)n5C4CC4)cc3)CC2)C1` [Example 62, 1-cyclopropyl-6-(4-(2-isopropyl-2,7-diazaspiro[3.5]nonan-7-yl)phenyl)-2-(4-(methylsulfonyl)phenyl)-1H-imidazo[4,5-c]pyridine], the IC50 in experiment [1] was 1.2 µM; in experiment [2], 5.1 µM; in experiment [3] it was 0.25 µM.

Consider `Cc1nc(-c2ccc(N3CCC(N4CCCC4)CC3)c(F)c2)cc2c1nc(-c1ccc(S(C)(=O)=O)cc1)n2C` [Example 42, 6-(3-fluoro-4-(4-(pyrrolidin-1-yl)piperidin-1-yl)phenyl)-1,4-dimethyl-2-(4-(methylsulfonyl)phenyl)-1H-imidazo[4,5-c]pyridine], for which the half-inhibitory concentration (IC50) is over 50 µM in experiment [1], 2.4 µM in experiment [2] and 0.44 µM in experiment [3].

Take `Cc1nc(-c2ccc(N3CC4(CN(CC(C)(C)O)C4)C3)cc2)cc2c1nc(-c1ccc(S(C)(=O)=O)cc1)n2C` [Example 97, 1-(6-(4-(1,4-dimethyl-2-(4-(methylsulfonyl)phenyl)-1H-imidazo[4,5-c]pyridin-6-yl)phenyl)-2,6-diazaspiro[3.3]heptan-2-yl)-2-methylpropan-2-ol]: the IC50 in experiment [1] was 6.8 µM; in experiment [2], 6.2 µM; in experiment [3], 0.078 µM.
